Experimental data from patent US20030086869A1, “Methods and kits for diagnosing a pancreatic-based fat malabsorption disorder” (priority 2001, published 2003).

Legend:
[1] = Malabsorption Blood Test (MBT): serum levels of PA and HA after oral PA and THA test breakfast meal in healthy control subjects; format: in vivo, human
Protocol: (§1) Both whole post-absorptive serum and isolated chylomicron fractions of the serum are analyzed for fatty acid composition. Chylomicrons are isolated from plasma by centrifugation at d=1.006 g/ml for 30 minutes at 26,000 g (Hatch, F. T., et al., 1968; Adv. Lipid Res., 6:1-68). Total lipids are extracted from each specimen following the method of Bligh and Dyer (Bligh, E. G., et al., 1959; Can. J. Biochem., 37:911-917). Following transmethylation of the lipid extracts using BF3-methanol, fatty acid composition is determined using gas-liquid chromatographic (GLC) analysis using a Hewlett Packard GLC equipped with a flame ionization detector, an automatic 7673 sampler and […]×0.25 mm ID column composed of a 0.20 micron film of SP-2560 (Supelco, Bellefonte, Pa.) (Morrison, W., et al., 1964; J. Lipid Res. 5:600-608). The temperature is programmed to change from 140° C. to 240° C. at a rate of 4° C./minute. At the time of extraction, heptadecanoic methyl ester is added as an internal standard.
Healthy control subjects between 18 and 50 years of age were selected. Exclusion criteria included: any chronic illness known to affect nutrient absorption, body mass index (BMI) <21 or >30 kg/m^2 (generally accepted healthy adult ranges), therapy with lipid lowering drugs, diabetes mellitus (NIDDM and IDDM), disorders associated with altered energy metabolism (e.g., hypothyroidism) and disinterest in participating in all three dosing experiments. This adult age range was selected for several reasons: (a) adult subjects are likely to remain committed to all three components of the study; (b) adults will understand the need to provide reliable feedback on taste and tolerance of the test breakfast meal and the entire malabsorption test procedure; and (c) adult subjects are able to plan the experimental day for full cooperation with the multiple phlebotomy events from 0700 to 1500 hours.
Upon arrival at the study center, subjects had their weight and height measured and an experienced phlebotomist inserted a self-retaining intravenous catheter with a heparin lock for serial blood sampling. After initially drawing 2 milliliters of blood into a sterile syringe, the experimental blood sample (2 milliliters) was drawn and immediately stored in a 4-milliliter serum separator tube. Thereafter, the initial 2 milliliters of blood was infused back into the catheter followed by 2 milliliters of heparin flush. After the baseline blood samples were obtained, the subjects drank an approximately 8 to 12 ounce liquid test breakfast meal. This meal contained one to three doses of PA and THA in a random distribution. Subjects were asked to consume the test breakfast meal within five minutes. Thereafter, serial blood samples were obtained at regular intervals over a period ranging from 30 minutes to 24 hours. During the initial eight-hour period, subjects were permitted to ingest non-caloric and non-caffeinated beverages. A study protocol lunch of known fat content was provided and actual food intake was recorded. Ambulation was limited to maintain adherence to the 30 to 60 minute intervals in the blood sampling schedule. After completion of the blood sampling, the catheter was removed, a snack was offered, and the subjects were encouraged to consume a full meal. The lipid doses (mg/kg) of PA and THA used in this experiment were based on doses 10-fold higher than similar fats used to correct essential fatty acid deficiency in cystic fibrosis, and previous studies which used ^13C […] to qualitatively assess fat malabsorption in pancreatic disease (Rosenlund, M. L., et al., 1977;Pediatrics, 59:428-32; Wutzke, K. D., et al., 1999; J. Pediatr. Gastroenterol. Nutr., 29:148-54).
Four healthy control subjects were administered a dose of 30 mg/kg PA and 30 mg/kg THA in the digestible composition (a liquid breakfast shake) after a 12-hour fast. Blood was drawn at baseline before consumption of the shake and then every 30 minutes thereafter until hour 6. […]

[2] = MBT absorption of PA and HA prior to Orlistat in fifteen healthy subjects; format: in vivo, human; details: PA 2.5 grams and THA 8.0 grams, FIG. 10, 11
Source text: Fifteen healthy adult subject volunteers (9 women) 18 to 50 years of age were recruited through local advertisements. Exclusion criteria included: any chronic illness known to affect nutrient absorption, body mass index (BMI) of less than 21 or greater than 30 kg/m^2 (i.e., outside of generally accepted healthy adult ranges), therapy with lipid lowering drugs, diabetes mellitus (NIDDM, IDDM) and disorders associated with altered energy metabolism (e.g., hypothyroidism). This adult age range was selected because Orlistat is FDA approved in adults. In addition, adults are able to plan the experimental days for cooperation with four days of the research study diet, outpatient 72-hour stool collection and phlebotomy requirements. […]
Subjects underwent a 12-hour fast from 2100 hours on day #1 of the study. […] Upon arrival at the study center on the morning of day #2, subjects had their weight and height measured, and an experienced phlebotomist inserted a self-retaining intravenous catheter with a heparin lock for serial blood sampling. […] The number and timing of blood samples was determined by the experiments in Example 1, and was expected to be six or fewer samples over an eight-hour or less time period. […]

[3] = MBT serum levels of PA and HA in subjects with CF and pancreatic insufficiency on and off pancreatic enzymes; format: in vivo, human
Protocol: as §1
Subjects with CF and pancreatic insufficiency currently treated with pancreatic enzymes, aged greater than 8 years were recruited. Exclusion criteria included: forced expiratory volume of the lungs at 1 second (FEV1) <40%, a history of fibrosing colonopathy or significant bowel resection (>10 cm), mental retardation, significant neurological deficit, developmental disability and autism. Subjects are in their usual state of good health. This age range was selected because it includes children during active growth where information regarding degree of malabsorption leads to improved nutritional intervention and pancreatic enzyme therapy. Also, children greater than 8 years of age are mature enough to provide assent and feedback concerning acceptability and tolerance of the MBT.
In the experiments shown in FIGS. 12 through 15, three subjects with CF were given either 30 mg/kg PA and 60 mg/kg THA (2 subjects) or 30 mg/kg PA and 90 mg/kg THA (1 subject) in a digestible composition consisting of a liquid breakfast shake after a 12 hour fast. The subjects were tested while they were taking their usual doses of pancreatic enzymes and then were tested again (more than one week later) when they were not taking pancreatic enzymes. Blood was sampled at baseline and then at hourly intervals from 2 to 8 hours and then sampled again at 24 hours. Subjects were fed a prepared lunchtime meal with a known quantity of fat (80 grams). The individual results for fat absorption for the 3 subjects with CF on enzymes are presented in FIG. 12 for PA and FIG. 13 for HA. For the same 3 subjects with CF off enzymes, the results for fat absorption are presented in FIG. 14 for PA and FIG. 15 for HA.
Additional experiments were performed on six subjects with CF either on or off pancreatic enzyme treatment. The serum levels of PA and HA in these six subjects on and off pancreatic enzyme treatment are presented in FIG. 16 anf FIG. 17, respectively.

pancreatic lipase = molecular target: T1, pancreatic lipase (Homo sapiens, UniProt P16233); assay: MBT before and after Orlistat treatment in healthy adult subjects (pharmaceutically induced fat malabsorption); format: in vivo
T1 construct: from tissue; host or cells: in vivo: endogenous pancreatic secretion in the small intestine of healthy adult subjects
T1 sequence (P16233 17-465): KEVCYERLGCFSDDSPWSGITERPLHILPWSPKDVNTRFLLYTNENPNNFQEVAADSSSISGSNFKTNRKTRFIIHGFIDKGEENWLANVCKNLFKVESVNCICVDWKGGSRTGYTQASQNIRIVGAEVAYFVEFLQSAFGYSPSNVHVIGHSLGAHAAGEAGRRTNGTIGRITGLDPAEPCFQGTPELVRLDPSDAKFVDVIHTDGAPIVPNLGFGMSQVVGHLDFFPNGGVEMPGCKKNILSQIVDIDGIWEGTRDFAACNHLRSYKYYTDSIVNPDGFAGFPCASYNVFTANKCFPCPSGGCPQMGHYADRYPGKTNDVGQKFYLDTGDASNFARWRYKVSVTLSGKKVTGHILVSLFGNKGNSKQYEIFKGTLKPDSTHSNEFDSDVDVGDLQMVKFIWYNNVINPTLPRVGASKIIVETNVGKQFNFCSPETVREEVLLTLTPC
T1 sequence (P04118 23-112 partner): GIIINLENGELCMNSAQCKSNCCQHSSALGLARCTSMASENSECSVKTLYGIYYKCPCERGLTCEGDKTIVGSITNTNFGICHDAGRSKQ
Protocol: Analysis of the baseline and subsequent half-hourly or hourly serum samples taken for up to eight hours for the three doses of pentadecanoic acid (PA) and triglyceride containing heptadecanoic fatty acids (THA) are used to create time-dependent measured and normalized measured (see below) dosage response curves. Each concentration is analyzed independently for each subject and as a complete set for all subjects to determine the rates of absorption, distribution, and elimination for each of the measured fatty acids PA and heptadecanoic acid (HA) and the pancreatic enzyme activity for the hydrolysis of THA. The simplest model to determine a coefficient of fat absorption and an index of pancreatic enzyme activity is derived from the set of normal subjects and subsequently applied to subjects before and during therapy with a pancreatic enzyme inhibitor (Orlistat). Finally, this model is applied to subjects with CF receiving various levels of enzyme therapy to determine their coefficient of fat absorption and their index of enzymatic activity. In the simplest possible situation, the measured levels of both HA and PA are dose independent and reach an early and prolonged steady state in either whole plasma or in the chylomicron fraction. In that case, the normalized PA and HA can be compared against a CFA measured using the conventional standard 72 hour stool and diet collection method for the same patient and an appropriate conversion factor (which may be dependent upon the BMI) can be determined from the data. The ratio of the normalized HA to the normalized PA is defined as an index reflecting the pancreatic enzymatic activity profile during the absorption phase. The data is analyzed for any dependence of this index upon the patient's age or BMI. The comparisons before and after therapy with Orlistat are expected to reflect a decrease in this index of approximately 70%. […]

[4] = four healthy control subjects, 30 mg/kg PA and 60 mg/kg THA, FIG. 3A, 4, 5A
[5] = four healthy control subjects, 30 mg/kg PA and either 60 or 90 mg/kg THA oral, FIG. 1 model
[6] = subjects with CF on pancreatic enzymes

SMILES	delay before rise in serum concentration ([1]; four healthy control subjects, 30 mg/kg PA and 30 mg/kg THA, liquid breakfast shake after 12-hour fast, FIG. 2) [h]	time at which increase in serum level is evident / begins [1, 4] [h]	time of peak serum level [1, 4] [h]	time of peak serum level ([1]; four healthy control subjects, 30 mg/kg PA and 90 mg/kg THA, FIG. 6-8) [h]	peak serum level ([1]; four healthy control subjects, 30 mg/kg PA and either 60 or 90 mg/kg THA oral at baseline, FIG. 1 model)	time of peak serum level [1, 5] [h]	time post-dose before serum level rises [1, 5]	concentration at 8 h ([1]; human, serum, four healthy control subjects, 30 mg/kg PA and either 60 or 90 mg/kg THA oral, FIG. 1 model, read-out: serum level by eight hours post dose) [ng/mL]	time up to which serum response continued to increase (sharp decrease after) ([1]; six healthy volunteers, PA 2.5 grams and THA 5.0 or 8.0 grams, FIG. 5B) [h]	average absorption [2]	serum level response ([3]; subjects with CF off pancreatic enzymes)	delay before serum levels increased [3, 6] [h]	time of peak serum level [3, 6]	serum levels compared with healthy control subjects ([3]; subjects with CF taking pancreatic enzymes)	expected decrease in index of pancreatic enzymatic activity (ratio of normalized HA to normalized PA) after therapy with Orlistat (pancreatic lipase; comparison before and after therapy with Orlistat, expected value of the model)	expected estimated pancreatic enzyme activity in the presence of Orlistat, relative to normal (unsuppressed) activity (pancreatic lipase; fraction of absorbed HA versus fraction of absorbed PA, expected value of the model)	serum response of PA prior to versus after receiving Orlistat (pancreatic lipase; healthy subjects, Orlistat 240 mg TID, PA 2.5 grams and THA 8.0 grams, FIG. 9)
CCCCCCCCCCCCCCCCC(=O)O [HA, heptadecanoic acid]	3 to 4	3	6	6	approximately 3 mg/dL	6	two	~10000	6	approximately 45%	no increase in serum levels	2	approximately 6 hours	lower	–	–	–
CCCCCCCCCCC[C@@H](C[C@@H]1OC(=O)[C@H]1CCCCCC)OC(=O)[C@H](CC(C)C)NC=O [Orlistat]	–	–	–	–	–	–	–	–	–	–	–	–	–	–	approximately 70%	about 70%	similar
